Eleven compounds from PMC10587869, “Deciphering Structural Determinants Distinguishing Active from Inactive Cell-Penetrating Peptides for Cytosolic mRNA Delivery” (Bioconjugate Chemistry, 2023) can be followed below.

Data set [1] in a line: Heparin-mediated polyplex decomplexation assay (QuantiFluor RNA). The class given is physicochemical. Particulars: for stability of polyplexes against heparin-induced decomplexation: N/P 5, TE buffer pH 7.5, 37 °C 90 min, released mRNA by QuantiFluor RNA dye, Figure 7. On the procedure: For testing the stability of mRNA polyplexes, a polyanion decomplexation assay, mediated by the polyanionic heparin (heparin sodium salt from porcine intestinal mucosa, Cat. No. H3149-100 KU, Sigma-Aldrich) was performed. mRNA polyplexes were freshly prepared with uncapped SecNLuc mRNA (RIBOPRO), as described in the section mRNA Nanoparticle Formation. Following polyplex formation, all samples were incubated for at least 30 min at room temperature. Importantly, separate stock solutions of heparin were made to ensure an equal volume across conditions regardless of heparin concentration. For decomplexation, 5 μL of 10× polyplexes were diluted in RNase-free TE-buffer at pH 7.5 (Promega, Cat. No. E260A) supplemented with an equal volume of heparin across conditions to a total volume of 50 μL in a 384-well plate (Greiner Bio-One, Cat. No. 781101). All samples were quickly spun down before incubation at 37 °C for 90 min. The QuantiFluor RNA System (Promega, Cat. No. E3310) was used with a 1:2000 dilution of RNA-binding dye for all tested conditions to detect released mRNA. For quantification, a calibration curve with uncapped SecNLuc mRNA was made, spanning from 0.19 ng mRNA/well to 50 ng mRNA/well. For detection of released mRNA, the dye was excited at 485 nm, and emission was collected at 535 nm using the VICTOR X3Multilabel Plate Reader (PerkinElmer)
Data analysis was performed using GraphPad Prism (GraphPad Software, version 8.4.2, San Diego, CA, USA). Data are presented as means ± standard deviation (SD) unless stated otherwise. Means were calculated by first averaging the technical replicates, for which outliers were identified using Grubbs’ test, followed by averaging the biological replicates. Before statistical analysis, all data were checked for normal distribution with a Shapiro–Wilk test. Statistical analysis was done using one- or two-way analysis of variance (ANOVA). Multiple comparisons were corrected using Tukey’s test with 95% confidence intervals. For the mRNA standard curve used in heparin decomplexation assays, the coefficient of variation was determined both in the standards and in samples and was ≤20%. The standard curve was fitted using a sigmoidal four-parameter logistic curve. The standard curve was back fitted with ±10% accuracy to verify the correctness of the fit. The signals from samples were blanked with the appropriate solution (TE buffer) before calculating interpolations. p > 0.05 was considered not significant, and p values were reported using the GraphPad Prism style (*p ≤ 0.05, **p ≤ 0.01, ***p ≤ 0.001, and ****p ≤ 0.0001).

The test system of a further data set is HeLa cells. The experiment in a line: Resazurin assay of metabolic activity after mRNA transfection. The class given is cell-based, human. Particulars: normalized to untreated. Here is the method: (§1) One day before mRNA transfections, 10 000 MC3T3 cells in 100 μL were seeded in 96-well plates (Greiner Bio-One Cat. No. 655180) or 20 000 cells in 200 μL in μ-slide eight-well chambers (Ibidi, Gräfelfing, Germany). These seeding densities ensured confluency between ∼70 and 90% on the day of transfection. mRNA transfections were performed by removing the complete medium from the wells and replacing it with mRNA nanoparticles diluted 10 times in complete medium. Cells were exposed to mRNA nanoparticles for 2 h at 37 °C, 5% CO2, in a humidified incubator. For some experiments, cells were stained with 200 μL of 1 μM CellTrace yellow (Thermo Fisher Scientific, Cat. No. C34567) directly after the nanoparticle incubation, according to the manufacturer’s instructions. Regardless of the tested N/P ratio or type of nanoparticle, mRNA inputs were equalized across conditions, resulting in 107 ng/well for luciferase assays in 96-well plate formats and 214 ng/well for confocal microscopy experiments. […] For untreated controls, complete cell culture medium was added and refreshed as often as in the experimental conditions.
(§2) The resazurin-based assay was performed essentially as described previously.[61],[62] In brief, the effect of different peptide-mRNA complexes on the metabolic activity of cells was measured 24 h post-transfection. Resazurin sodium salt (Sigma-Aldrich, Cat No. R7017) was dissolved in PBS and diluted 100 times to a final concentration of 100 μg/mL in complete medium. After 2 h of incubation with cells at 37 °C, fluorescence was measured using the VICTOR X3Multilabel Plate Reader (PerkinElmer, Waltham, MA, USA). After briefly shaking the plate, resazurin was excited at 485 nm, and emission was collected from 570 to 620 nm. All samples were blanked by the average signal of cell-free wells. Blanked data were normalized to untreated conditions per cell type.
Background: The colour change of resazurin is a common sign of viable cells or microbes.

The test system of data set [2] is MC3T3 cells. Described as above. The class given is cell-based, murine. Further details: concentration or dose not given beside the values. As to conditions: normalized to untreated. Here is the method:
as §1, §2

Data set [3] has as its system MC3T3 cells. Nature of the data set: Cellular uptake of Cy5-eGFP mRNA polyplexes, live-cell confocal microscopy. The class given is cell-based, murine. Particulars: for effect of oligomerization on uptake: Cy5-labeled mRNA, polymerized vs monomeric, Figure 5, Figure S5; for ratio of Poly hLF-x vs Mono-hLF-x, Corrected Total Cellular Fluorescence (Cy5): Cy5-eGFP mRNA polyplexes, 2 h post-transfection, n = 5 fields of view per condition. On the procedure:
Peptide-mRNA polyplexes were formulated as previously described.[40],[41] In short, two separate stock solutions of mRNA and peptide were prepared in MQ and simultaneously dispensed with electronically dispensing pipettes (E4 Electronic Pipette, LTS E4-100XLS+, Mettler-Toledo Rainin, LLC, Oakland, CA, USA) at a flow rate of 11 mL min^–1. All polyplexes were formed at a concentration of at least 10-fold the final intended concentration for transfections.
as §1
Before microscopy, complete medium containing phenol red was replaced with an equal volume of phenol red-free and HEPES-formulated Opti-MEM (Gibco). The uptake of Cy5-eGFP mRNA-formulated nanoparticles was assessed 2 h post-transfection, and eGFP expression was assessed 24 h post-transfection. Live-cell imaging was performed using a Leica TCS SP8 SMD (Leica Microsystems, Mannheim, Germany) with an HC PL APO CS2 63×/1.20 water objective and a temperature-controlled stage at 36.5 °C. eGFP was excited at 488 nm (emission: 500–550 nm). CellTrace yellow was excited at 555 nm (emission: 570–620 nm), and Cy5 was excited at 633 nm (emission: 650–690 nm). All laser lines were generated by a white-light laser, and emissions were detected with hybrid detectors. All channels were sequentially acquired to avoid crosstalk at a bit depth of 12. Except for the LMM eGFP conditions (reduced gain), equal acquisition settings (pixel size, pinhole, laser power, and gain) per fluorophore were used within the experiments.
Quantification of the Cy5 fluorescence was performed as previously described.[59],[60] In brief, five separate images (unless stated otherwise) containing approximately 10 cells per image were analyzed using ImageJ (version 1.53f51). A square mask of 184.52 μm^2 was used to quantify the raw integrated density (sum of all pixels in a region of interest). Importantly, cell confluencies ranged from ∼80–95%, ensuring minimal impact of cell density on total fluorescence values. The brightness and contrast of the images were adjusted to find a cell-free region to determine background fluorescence. Then, a circle was drawn to measure the background fluorescence. To obtain the corrected total cellular fluorescence (CTCF), the area (in pixels) was multiplied by the mean gray value of the background and subsequently subtracted from the raw integrated density.

[4] abbreviates: N/P 5, resazurin 24 h post-transfection.
The mark [5] stands for this setting: MC3T3, N/P 3, resazurin 24 h post-transfection.
Where [6] appears, read: MC3T3, N/P 5, resazurin 24 h post-transfection.

Positions of bridges follow the written chain, without caps; N, C: chain ends. Non-standard residues stand in square brackets, D forms with d. Residues, ends and D or L forms follow the SMILES beside them. No end group written: not given here. *: point of attachment. Stearoyl = CCCCCCCCCCCCCCCCCC(=O)*; Orn = NCCC[C@H](N)C(=O)O

As for `CC[C@H](C)[C@H](NC(=O)[C@@H]1CSSC[C@H](NC(=O)[C@H](CCCCN)NC(C)=O)C(=O)N[C@@H](Cc2ccccc2)C(=O)N[C@@H](CCC(N)=O)C(=O)N[C@@H](Cc2c[nH]c3ccccc23)C(=O)N[C@@H](CCC(N)=O)C(=O)N[C@@H](CCCNC(=N)N)C(=O)N[C@@H](CC(N)=O)C(=O)N[C@@H](CCSC)C(=O)N[C@@H](CCCNC(=N)N)C(=O)N[C@@H](CCCCN)C(=O)N[C@@H](C(C)C)C(=O)N[C@@H](CCCNC(=N)N)C(=O)NCC(=O)N2CCC[C@H]2C(=O)N2CCC[C@H]2C(=O)N[C@@H](C(C)C)C(=O)N[C@@H](CO)C(=O)N1)C(=O)N[C@@H](CCCCN)C(=O)N[C@@H](CCCNC(=N)N)C(N)=O` [Mono-hLF-WT] (Ac-KCFQWQRNMRKVRGPPVSCIKR-NH2; disulfide 2-19), in data set [1], the “stability of polyplexes against heparin-induced decomplexation” value was “significantly lower stability of these polyplexes compared to PF14, except for the highest heparin dose”. The relative metabolic activity in the data set on HeLa cells (setting [4]) worked out at 83%; in the data set on MC3T3 cells [2] (setting [5]), 125%. Take `CC(C)C[C@@H]1NC(=O)[C@H](C)NC(=O)[C@H](CCCN)NC(=O)[C@H](C(C)C)NC(=O)[C@H](CCCN)NC(=O)[C@H](CCCN)NC(=O)[C@H](CC(C)C)NC(=O)[C@H](CC(N)=O)NC(=O)[C@H](CCCN)NC(=O)[C@H](CC(C)C)NC(=O)[C@H](Cc2c[nH]c3ccccc23)NC(=O)[C@H](CCC(N)=O)NC(=O)[C@H](Cc2ccccc2)NC(=O)[C@@H](NC(=O)[C@@H](N)CCCN)CSSC[C@@H](C(=O)N[C@@H](CC(C)C)C(=O)N[C@@H](CCCN)C(=O)N[C@@H](CCCN)C(N)=O)NC(=O)[C@H](CO)NC(=O)[C@H](C(C)C)NC(=O)[C@H](CC(C)C)NC1=O` [Mono-hLF-v3] (H-[Orn]CFQWL[Orn]NL[Orn][Orn]V[Orn]ALLVSCL[Orn][Orn]-NH2; disulfide 2-19): the relative metabolic activity in the data set on MC3T3 cells [2] (setting [5]) worked out at 125%. For the compound `CCCCCCCCCCCCCCCCCC(=O)N[C@@H](C)C(=O)NCC(=O)N[C@@H](Cc1ccc(O)cc1)C(=O)N[C@@H](CC(C)C)C(=O)N[C@@H](CC(C)C)C(=O)NCC(=O)N[C@@H](CCCCN)C(=O)N[C@@H](CC(C)C)C(=O)N[C@@H](CC(C)C)C(=O)N[C@@H](CCCN)C(=O)N[C@@H](CCCN)C(=O)N[C@@H](CC(C)C)C(=O)N[C@@H](C)C(=O)N[C@@H](C)C(=O)N[C@@H](C)C(=O)N[C@@H](C)C(=O)N[C@@H](CC(C)C)C(=O)N[C@@H](CCCN)C(=O)N[C@@H](CCCN)C(=O)N[C@@H](CC(C)C)C(=O)N[C@@H](CC(C)C)C(N)=O` [PF14, reference compound] (Stearoyl-AGYLLGKLL[Orn][Orn]LAAAAL[Orn][Orn]LL-NH2), the “stability against heparin decomplexation” value in data set [1] (N/P 7, low heparin dose, Figure S8) was “least stable”. The relative metabolic activity in the data set on HeLa cells (N/P 3, resazurin 24 h post-transfection) turned out to be 72%; in the data set with HeLa cells (setting [4]), 13%; in the data set on MC3T3 cells [2] (setting [6]) it was 64%. With `CC(C)C[C@@H]1NC(=O)[C@H](C)NC(=O)[C@H](CCCCN)NC(=O)[C@H](C(C)C)NC(=O)[C@H](CCCCN)NC(=O)[C@H](CCCCN)NC(=O)[C@H](CC(C)C)NC(=O)[C@H](CC(N)=O)NC(=O)[C@H](CCCCN)NC(=O)[C@H](CC(C)C)NC(=O)[C@H](Cc2c[nH]c3ccccc23)NC(=O)[C@H](CCC(N)=O)NC(=O)[C@H](Cc2ccccc2)NC(=O)[C@@H](NC(=O)[C@@H](N)CCCCN)CSSC[C@@H](C(=O)N[C@@H](CC(C)C)C(=O)N[C@@H](CCCCN)C(=O)N[C@@H](CCCCN)C(N)=O)NC(=O)[C@H](CO)NC(=O)[C@H](C(C)C)NC(=O)[C@H](CC(C)C)NC1=O` [mono-hLF-v2] (H-KCFQWLKNLKKVKALLVSCLKK-NH2; disulfide 2-19), the relative metabolic activity in the data set with MC3T3 cells [2] (setting [6]) is ~125%. As to “KCFQWLKNLKKVKALLVSCLKK [hLF-v2, lysine-substituted amphipathic hLF variant]”, the “effect of oligomerization on uptake” value in the data set with MC3T3 cells [3] (2 h incubation) is reported as “pronounced increase in uptake”. Regarding “KCFQWQRNMRKVRGPPVSCIKR (disulfide 2-19 (inferred)) [Poly hLF-WT, hLF-WT oligomerized through intermolecular disulfide bonds]”, the “stability of polyplexes against heparin-induced decomplexation” value in data set [1] was “significantly lower release of mRNA”. As to “OCFQWLONLOOVOALLVSCLOO (disulfide) [poly hLF-v3, polymeric hLF-v3]”, the relative metabolic activity in the data set on MC3T3 cells [2] (setting [6]) is on record as ~125%. For the same compound, the “uptake of Cy5-labeled mRNA polyplexes of amphipathic hLF variants” value with MC3T3 cells [3] (2 h incubation, live-cell confocal microscopy, serum present, Figure 5, four independent experiments) is reported as “comparable to the one of PF14”. On to “OCFQWLONLOOVOALLVSCLOO [hLF-v3, ornithine-substituted amphipathic hLF variant]”, for which, in the data set with MC3T3 cells [3] (2 h incubation), the “effect of oligomerization on uptake” value is “pronounced increase in uptake”. Regarding “OCFQWQHNMOHVHGPPVSCIOH [hLF-His&Orn, hLF analog with positively charged residues replaced by histidines and ornithines]”, the “ratio of Poly hLF-x vs Mono-hLF-x, Corrected Total Cellular Fluorescence (Cy5)” value in the data set on MC3T3 cells [3] was 2.42 x. Regarding “OCFQWQONMOOVOGPPVSCIOO (disulfide) [poly-hLF-Orn, hLF-Orn oligomerized through intermolecular disulfide bonds]”, the “difference in heparin decomplexation” value in data set [1] (N/P 1 and 3, low or high heparin amounts, Figure S8) is “no difference”. In the case of “OCFQWQONMOOVOGPPVSCIOO [hLF-Orn, hLF analog with positively charged residues replaced by ornithines]”, the “ratio of Poly hLF-x vs Mono-hLF-x, Corrected Total Cellular Fluorescence (Cy5)” value with MC3T3 cells [3] amounted to 1.19 x.
